Measurements: patent publication US20230323336A1, “HIGH-THROUGHPUT, DROPLET-BASED SINGLE CELL RNA SEQUENCING” (priority 2021, published 2023)
In brackets after ≈: the same amount, converted by molar mass.

Legend:
UCI38 = test: MIC by standard microdilution, strain UCI38; assay type: cell-based, K. pneumoniae; details: for MIC: Klebsiella pneumoniae
Procedure: (§1) The cells for flow cytometry were prepared using the same scheme as the meropenem-treated sample for BacDrop. After treating with meropenem at 2 µg/mL for 30 minutes, cells were diluted into PBS at the final concentration of 10^6 cells/mL and immediately run through flow cytometer. For the flow cytometry including dead-cell staining, 10 µL propidium iodide (1 mg/mL) (Invitrogen, cat# P1304MP) was mixed with 1 mL PBS. Cells after treatment were then diluted in the staining buffer at the final concentration of 10^6 cells/mL, and incubated in the dark at room temperature for 15 minutes followed by running through flow cytometer. To sort GFP-low and GFP-high populations, cells were run through fluorescence-activated cell sorting (FACS). Applicants sorted ~10^6 cells into 2 mL LB without or with meropenem (2 µg/mL) from each population. A 50 µL aliquot from cells sorted in LB medium without antibiotics was immediately diluted and plated on LB agar plates without antibiotics. The colony forming unites (CFU) on LB agar plates were enumerated to calculate the survival rates. The rest of the cells was used to measure MICs using the standard microdilution protocol^29 or proceeded with the persister assay. For the persister assay, cells were cultured at 37° C. with shaking. At each time points, a 50 µL aliquot was taken, diluted and plated on LB agar plates without antibiotics. Three replicates were performed in each experiment.

MGH66 [1] = test: MIC by standard microdilution, strain MGH66; assay type: cell-based, K. pneumoniae; details: for MIC: Klebsiella pneumoniae
Procedure: as §1

BIDMC35 = test: MIC by standard microdilution, strain BIDMC35; assay type: cell-based, K. pneumoniae; details: for MIC: Klebsiella pneumoniae
Procedure: as §1

K. pneumoniae MGH66 [2] = assay type: cell-based
Procedure: (§2) K.pneumoniae, E.coli, and P. aeruginosa were cultured in Luria-Bertani (LB) medium or Mueller-Hinton Broth (MHB) with shaking at 37° C.E.faecium was cultured in Todd-Hewitt broth (THB) with shaking at 37° C. For the GFP experiment, E.coli strains expressing gfp driven by different promoters were cultured separately in LB at 37° C. Early exponential growth phase cells (OD600 ~0.2) were collected and fixed immediately. For the antibiotic treatment experiment, K.pneumoniae clinical isolate MGH66 was cultured in MHB at 37° C. until early exponential phase. Then the culture was diluted to OD600 0.05 in MHB. After growing for two doublings (~40 min, OD600 ~0.2), the cultures were split into four equal volume cultures. One culture was left untreated, while the other three were treated with relevant antibiotic at breakpoint concentrations set by the Clinical and Laboratory Standards Institute (CLSI): 2 µg/mL for meropenem, 1 µg/mL for ciprofloxacin and 4 µg/mL for gentamicin. After 30 min, 7 mL of cells were collected from each of these cultures, and immediately proceeded with the cell fixation protocol. For the bulk RNA-seq experiments, samples were collected using the same treatment schemes, and three biological replicates were included in each condition. For the BIDMC35 experiment, BIDMC35 was cultured in LB medium at 37° C. until early exponential phase (OD600 ~0.2). 7 mL cells were then collected and immediately proceed with the cell fixation protocol.
All reagents (Table 5) for cell fixation and permeabilization were kept ice-cold. […] (Digital Platform Rocker Shaker, VWR). […] Subsequent centrifugations were carried out at 7000 × g for 5 minutes at 4° C. […] Cells were centrifuged and resuspended in 700 µL50% Ethanol in PBS-RI. Cells were then washed twice with PBS-RI. After the second wash, cells were resuspended in 1 mL100 mM Tris-HCL (pH 7.5) supplemented with 0.1 U/uL NxGen RNase inhibitor.
Insufficient permeabilization may result in inefficient rRNA depletion and gDNA removal. For 1 permeabilization reaction, up to 40 million cells were centrifuged and resuspended in 250 µL0.04% Tween-20 in 1x PBS. If more cells are desired, multiple parallel reactions can be set up. Immediately following a 3-minute incubation on ice, 1 mL cold PBS-RI was added, and cells were spun down and resuspended in 200 µL lysozyme mix (100 mM Tris (pH 8.0), 50 mM EDTA pH 8.0, 0.25 U/µL NxGen RNase Inhibitor, 2.5 mg/mL lysozyme). Cells were then incubated at 37° C. for 15 minutes. After the incubation, 1 mL PBS-RI was added and cells were washed twice with 175 µL PBS-RI. After the second wash, cells were resuspended in 150 µL PBS (without RNase inhibitor added) and cell concentrations were measured.
Immediately after cell permeabilization, up to 40 million cells were centrifuged and resuspended in 11 µL nuclease-free H2O. 2 µL NEBNext Bacterial rRNA depletion solution and 2 µL Probe Hybridization Buffer (NEB, CN E7850) were mixed with cells on ice. The hybridization was conducted per the following (lid temperature set to 55° C.): 50° C. for 2 minutes, ramp down to 22° C. at 0.1° C. /second, and hold at 22° C. for 5 minutes. Probe hybridization was immediately followed by RNase H digestion by mixing the probe-hybridized cells with 2 µL RNase H reaction buffer, 2 µL Thermostable RNase H (NEB, CN E7850), and 1 µL nuclease-free H2O, followed by a 30-minute incubation at 50° C. (lid temperature set to 55° C.). […] The reaction was incubated at room temperature for 30 minutes, and the DNase treatment was stopped by adding 1 µL Stop Solution (50 mM EDTA) and incubating at 50° C. for 10 minutes. After the incubation, cells were centrifuged and washed twice with 100 µL PBS-RI. After the second wash, cells were resuspended in 20 µL0.5x PBS supplemented with 1 U/µL SUPERase-In RNase inhibitor and used immediately for in-cell reverse transcription.

K. pneumoniae MGH66 [3] = test: Bulk RNA-seq of antibiotic-treated MGH66; assay type: cell-based; details: MGH66, OD600 ~0.2, 30 minutes treatment
Procedure: as §2
To construct sequencing libraries from bacterial cultures, cell pellets collected from 1 mL early exponential phase cultures were re-suspended in 500 µL TRIzol Reagents (ThermoFisher, CN 15596026) and frozen at -80 C for at least 20 min. Cells were then thawed and mixed with 250 µL of 0.1 mm diameter Zirconia/Silica beads (BioSpec Products), and lysed mechanically via bead-beating for 90 second at 10 m/sec on a FastPrep (MP Bio). After addition of 0.1 mL chloroform, each sample tube was mixed thoroughly by inversion, incubated for 3 minutes at room temperature, and centrifuged at 12,000 xg for 15 minutes at 4° C. […]

MGH66: PcpsD:gfp = test: MIC by standard microdilution, reporter strain MGH66: PcpsD:gfp; assay type: cell-based, K. pneumoniae
Text: (§3) Applicants amplified the promoter region of cspD or yhcN from MGH66 and ligated it into pUA139^26 using the BamHI and XhoI sites, resulting in pUA139-PcspD and pUA139-PyhcN. The construct was then transformed into E.coli DH5a and the plasmids were extracted and verified using Sanger sequencing. Electrocompetent cells of MGH66 was made as previously reported^22. The extracted plasmids were then transformed into MGH66 via electroporation, generating MGH66: PcspD:gfp and MGH66: PyhcN:gfp.
(§4) The cells for flow cytometry were prepared using the same scheme as the meropenem-treated sample for BacDrop. After treating with meropenem at 2 µg/mL for 30 minutes, cells were diluted into PBS at the final concentration of 10^6 cells/mL and immediately run through flow cytometer. For the flow cytometry including dead-cell staining, 10 µL propidium iodide (1 mg/mL) (Invitrogen, cat# P1304MP) was mixed with 1 mL PBS. Cells after treatment were then diluted in the staining buffer at the final concentration of 10^6 cells/mL, and incubated in the dark at room temperature for 15 minutes followed by running through flow cytometer. To sort GFP-low and GFP-high populations, cells were run through fluorescence-activated cell sorting (FACS). Applicants sorted ~10^6 cells into 2 mL LB without or with meropenem (2 µg/mL) from each population. […]

E. coli 10ß = test: MIC by standard microdilution, strain E. coli 10ß; assay type: cell-based
Procedure: as §1, with “Three replicates were performed in each experiment.” left out

MGH66: PyhcN:gfp = test: MIC by standard microdilution, reporter strain MGH66: PyhcN:gfp; assay type: cell-based, K. pneumoniae
Text: as §3, §4

MGH66:pBA D: cspD = test: MIC by standard microdilution, strain MGH66:pBAD:cspD; assay type: cell-based, K. pneumoniae; details: cspD induced with 1% arabinose
Procedure: as §1, with “Three replicates were performed in each experiment.” left out

[4] = tested on: MGH66:PyhcN:gfp and MGH66:PcspD:gfp; test: Flow cytometry/FACS of GFP reporter strains with live/dead staining; assay type: cell-based, K. pneumoniae
Text: as §3, §1

MGH66 [5] = test: Killing kinetics of MGH66 treated with antibiotics (CFU); assay type: cell-based, K. pneumoniae; details: MGH66, at 30 minutes
Procedure: At each time points, cells from meropenem treatment (green), Ciprofloxacin treatment (blue), Gentamicin treatment (purple), and the untreated samples were diluted and plated on LB agar plates without antibiotics. CFUs from each condition were normalized to the CFUs of the untreated samples at the same time points to calculate the killing rates for each time points. The experiment was repeated three times and the error bars are plotted as standard deviation.

[6] = tested on: MGH66:PcspD:gfp sorted subpopulations; MGH66 over-expressing cspD; test: Persister assay (CFU over time under meropenem); assay type: cell-based, K. pneumoniae; details: meropenem 2 µg/mL
Procedure: as §1, with “Three replicates were performed in each experiment.” left out

MGH66 [7] = test: RNA FISH of meropenem-treated MGH66; assay type: cell-based, K. pneumoniae; details: meropenem-treated MGH66, 20 fields of view
Procedure: RNA FISH probes were designed using Design Probes tool of DECIPHER^32. 3 - 5 probes were designed for each target gene (Table 11). Probes were synthesized at Integrated DNA technologies and labeled with either Cy3 or Alex488 dye at the 5′. Probes of the same gene were pooled together and diluted into 10 µM stocks. Meropenem-treated MGH66 cells were fixed and permeabilized using the same protocol as the cell fixation and permeabilization steps in BacDrop. The hybridization was carried out in 40% hybridization buffer at 50° C. overnight and the following washing steps of washing were performed as described previously^33. Cells were imaged using the DeltaVision widefield deconvolution imaging system with a 60x objective. ImageJ was used for image data analysis and cell quantification.

[8] = meropenem-treated MGH66, 2 µg/mL, 30 min
[9] = 30 minutes of meropenem treatment

O=C(O)c1cn(C2CC2)c2cc(N3CCNCC3)c(F)cc2c1=O [Ciprofloxacin, ciprofloxacin]
MIC (UCI38): 32 µg/mL (≈ 96.6 µM) | MIC (MGH66 [1]): 0.03 µg/mL (≈ 0.0905 µM) | MIC (BIDMC35): > 32 µg/mL | heterogeneity of single-cell transcriptional response (K. pneumoniae MGH66 [2]; MGH66, 30 min treatment): did not detect obvious heterogeneity of response | transcriptional response in bulk RNA-seq relative to untreated control (K. pneumoniae MGH66 [3]): induced genes involved in SOS response

gentamicin
MICs (UCI38): 2 µg/mL | MICs (MGH66: PcpsD:gfp): 1 µg/mL | MICs (E. coli 10ß): <0.03 µg/mL | MICs (MGH66 [1]): 1 µg/mL | MICs (BIDMC35): 0.5 µg/mL | heterogeneity of single-cell transcriptional response (K. pneumoniae MGH66 [2]; MGH66, 30 min treatment): did not detect obvious heterogeneity of response | treated cells belonging to the heat-shock response cluster (K. pneumoniae MGH66 [2]; MGH66, 30 min treatment, across both replicates): 66%-71% | transcriptional response in bulk RNA-seq relative to untreated control (K. pneumoniae MGH66 [3]): induced a group of heat shock chaperone proteins | MICs (MGH66: PyhcN:gfp): 1 µg/mL

C[C@@H](O)[C@H]1C(=O)N2C(C(=O)O)=C(S[C@@H]3CN[C@H](C(=O)N(C)C)C3)[C@H](C)[C@H]12 [Meropenem, meropenem]
MIC (UCI38): 0.03 µg/mL (≈ 0.0782 µM) | effect of cspD induction on MIC (MGH66:pBA D: cspD): did not affect | MIC (E. coli 10ß; Escherichia coli): < 0.03 µg/mL | MIC (MGH66 [1]): 0.03 µg/mL (≈ 0.0782 µM) | MIC (BIDMC35): > 32 µg/mL | cells co-expressing cspD and rihC, BacDrop (K. pneumoniae MGH66 [2]; meropenem-treated MGH66): ~ 0.7% | cells co-expressing rseB + yidC, BacDrop (K. pneumoniae MGH66 [2]; meropenem-treated MGH66): ~ 8% | cells in DNA replication and cell division subpopulation (cluster 9) (K. pneumoniae MGH66 [2]; [8]): 1% | cells in cell wall/membrane synthesis subpopulation (cluster 7 and 11) (K. pneumoniae MGH66 [2]; [8]): 5.7% | cells in cspD-expressing subpopulation (cluster 10) (K. pneumoniae MGH66 [2]; [8]): 0.7% | cells in strongest stress response subpopulation (clusters 5 and 12) (K. pneumoniae MGH66 [2]; [8]): 8% | transcriptional response in bulk RNA-seq relative to untreated control (K. pneumoniae MGH66 [3]): minimal transcriptional responses | dead cells in the gated population (propidium iodide) [4, 9]: ~ 15.2% | live cells in the GFP-high population [4, 9]: about 94% | live cells in the GFP-low population [4, 9]: approximately 80% | heterogeneous expression of yhcN or cspD GFP reporters ([4]; MGH66:PyhcN:gfp, relative to untreated control): induced heterogeneous expression | impact on cell killing (MGH66 [5]): same impact on cell killing as ciprofloxacin and gentamicin | persister cells in MGH66 over-expressing cspD versus without induction ([6]; 1% arabinose induction): ~ 100 times | tolerant cells/persisters in GFP-high versus GFP-low sorted subpopulation ([6]; MGH66:PcspD:gfp sorted after 30-minute exposure): enriched for meropenem tolerant cells | cells co-expressing cspD and rihC, RNA FISH (MGH66 [7]): ~ 0.85% | cells co-expressing rseB + yidC, RNA FISH (MGH66 [7]): ~ 12%
